The record followed here is publication PMC11325505, “Nitrogen-Containing Flavonoids—Preparation and Biological Activity” (ACS Omega, 2024).

Converted amounts (≈) assume the structure as drawn. Where two headings read alike, the source gives them in different places.

The subject of test [1] is nitric oxide (NO) production by RAW 264.7 stimulated by LPS. The test can be described thus: Anti-inflammatory activity: NO production by LPS-stimulated macrophages. It is filed as cell-based, Murine. Conditions: Mus musculus, RAW264.7; LPS-stimulated RAW 264.7; average of four repetitions ± SEM. How it is done:
(§1) The anti-inflammatory activity of flavonoids was evaluated as their ability to decrease the production of signaling molecules that mediate inflammation, such as nitric oxide (NO), tumor necrosis factor (TNF-α), and interleukin 6 (IL-6), in LPS-stimulated macrophages.
(§2) The anti-inflammatory activity of the tested flavonoids was determined as the ability to reduce the production of nitric oxide (NO), tumor necrosis factor (TNF-α), and interleukin 6 (IL-6) by RAW 264.7 stimulated by LPS, as previously described.[39],[40] Briefly, 1 × 10^6 cells/mL was seeded into the 96-well plate (100 μL/well). After 48 h, LPS (100 ng/mL) and the samples (3–100 μM) were added to the MEM medium. After 24 h, the medium was mixed with Griess reagent (0.04 g/mL) at a 1:1 ratio. The absorbance was measured after 15 min at 540 nm. Cell viability was determined using the resazurin assay.

The test system of test [2] is interleukin 6 (IL-6) production by RAW 264.7 stimulated by LPS. As to the kind of experiment: Anti-inflammatory activity: IL-6 production by LPS-stimulated macrophages. The test is classed as cell-based, Murine. Conditions: for IC50: Mus musculus, RAW264.7, LPS-stimulated RAW 264.7, average of four repetitions ± SEM; for ability to inhibit IL-6 production compared to luteolin, in words: LPS-stimulated macrophages. How it is done:
as §1, §2
To determine TNF-α levels, cells were precultivated with the tested compounds for 24 h. After 2 h of incubation with LPS, the medium was diluted 1:10 with ELISA diluent. To determine the level of IL-6, cells were cultivated for 6 h with LPS and the tested compounds. Cytokine production was determined using an uncoated ELISA performed according to the manufacturer’s instructions.

In test [3] the test system is human dermal fibroblasts (HDF). As to the kind of experiment: Cytotoxicity (resazurin assay), fibroblasts. It is filed as cell-based. Conditions: Homo sapiens, Fibroblast, 72 h, read-out: HDF IC50 (concentration that halved the viability). The procedure:
The cytotoxicity of the prepared derivatives was evaluated by their ability to decrease the viability of immortalized human keratinocytes (HaCaT) and human dermal fibroblasts (HDF).
100 μL of cell suspension containing 10^5 cells/mL was pipetted into a 96-well plate. After 24 h incubation, the tested compounds were added in the concentration range 12.5–200 μM. After 72 h incubation, the cell viability was tested by standard resazurin assay.[41] Briefly, the cells were washed with PBS and incubated with 100 μL of resazurin solution (0.025 mg/mL) for 2 h. The fluorescence was measured at a wavelength of 560 nm excitation/590 nm emission.
Background: Resazurin is reduced to fluorescent resorufin, in cell work by metabolically active cells.

The subject of test [4] is Methicilin-Resistant S. aureus 331 Strain. The test can be described thus: Mode of antimicrobial action with erythromycin, ermC-positive strain. It is filed as cell-based. The source says:
(§3) Erythromycin is a macrolide antibiotic that inhibits proteosynthesis by binding to the 50S subunit of the ribosome. In Staphylococcus species, resistance to erythromycin is associated with the presence of methyltransferases (encoded by erm genes) that alter the ribosomal target site. Another typical mechanism of resistance to erythromycin is the presence of an ATP-dependent efflux pump encoded by the msr(A) gene or a major facilitator superfamily (MFS) pump encoded by the lmrS gene. Both efflux pumps reduce the concentration of erythromycin in the cell below the therapeutic dose by transporting it across the membrane to the extracellular space. Another erythromycin resistance gene is the mph(C) gene, the product of which is a phosphotransferase that alters the structure of macrolide antibiotics. To elucidate the mechanism of erythromycin resistance modulation in S. aureus, further tests were performed with the strains MRSA 331 and MRSA 3596, which inactivate erythromycin via a single mechanism (ermC and ermA, respectively). […] Therefore, if the activity was not strain-specific, it would be necessary to consider the effect of the derivatives on this pump (Table 3).
(§4) Sensitization of multidrug-resistant clinical bacterial strains was performed according to ref[15]. Antibiotic cutoff concentration was chosen according to the European Committee on Antimicrobial Susceptibility Testing (EUCAST, Clinical breakpoints–bacteria, ver. 11.0). The 200 μM concentration of the derivatives was chosen as the highest test concentration. The absorbance detected at 600 nm was then used to estimate the number of viable cells after 24 h of incubation at 37 °C and 120 rpm.
(§5) Experiments were performed with the respective number of replicates indicated in each figure/table. MIC was determined as IC70. Both IC70 and IC50 values were calculated using the following nonlinear regression in the software GraphPad Prism: […]

The subject of another test is MRSA 3596. As to the kind of experiment: Mode of antimicrobial action with erythromycin or gentamicin, ermA- and aadD-positive strain. As to conditions: for effect (mode of action with erythromycin) / effect (mode of action with gentamicin) / FIC (Fractional Inhibitory Concentration Index): MRSA 3596; for MIC, Gentamicin [1 mg/L] yes / MIC: MRSA 3596 (aadD); for MIC, Gentamicin [1 mg/L] yes: with gentamicin 1 mg/L; for MIC: Staphylococcus aureus, 24 h, read-out: MIC, Gentamicin [1 mg/L] no, without gentamicin, Table S6. It is filed as cell-based, S. aureus.
From the text: as §3
Among the mechanisms of resistance to gentamicin previously described in S. aureus, the presence of enzymes that alter the structure of aminoglycosides is crucial. These enzymes can transfer nucleotides, phosphates, or acetyls to various −OH or −NH2 groups of gentamicin, preventing its subsequent interaction with the cellular target, i.e., the 30S ribosomal subunit. The bifunctional aminoglycoside-modifying enzyme with acetylation and phosphotransferase activities encoded by the gene aac(6’)/aph(2’), 4′,4″ adenyltransferase encoded by the aadD gene, and aminoglycoside O-phosphotransferase encoded by the gene aph(3′) are the most important.[37] […] For this reason, further testing continued using strains MRSA 3596 and MRSA 1584, which inactivate gentamicin only by a single mechanism (aadD and aac(6’)-aph(2’’), respectively).
as §4, §5

For a further test, the system named is S. aureus MRSA 9. As to the kind of experiment: Antibacterial activity, multidrug-resistant strain. The test is classed as cell-based. As to conditions: Staphylococcus aureus, MRSA; multidrug-resistant strain; three repetitions ± SEM. How it is done:
To evaluate the ability to modulate bacterial resistance, the tested flavonoids themselves cannot exert antimicrobial activity; therefore, the nontoxic concentration was used, as indicated in Table S5. Clinically relevant antibiotics were selected at breakpoint concentrations for susceptibility testing according to the European Committee on Antimicrobial Susceptibility Testing (EUCAST, version 11.0). […] Flavonoids and their derivatives (from 1 μM to the highest nontoxic concentration) were used in combination with the breakpoint concentration of the antibiotics. After coincubation, the minimum inhibitory concentration (MIC) of flavonoids inhibiting the visible growth of bacteria was determined (Table 2).
as §4, §5

[5] abbreviates: 72 h incubation, resazurin, average of three repetitions ± SEM.

For `O=c1c(O)c(-c2ccc(O)c(O)c2)oc2cc(O)cc(O)c12` [compound 4, quercetin, reference compound], the IC50 was 9.3 ± 0.6 µM in test [1], 4.7 ± 0.2 µM in test [2], 80 ± 1.5 µM in test [3] and more than 200 µM with S. aureus MRSA 9. The “MIC, erythromycin [1 mg/L] yes” value in test [4] (MRSA 331 (ermC), with erythromycin 1 mg/L) was 190.9 ± 0.5 µM (≈ 57.7 µg/mL); in the test on MRSA 3596 (MRSA 3596 (ermA), with erythromycin 1 mg/L), 58.6 ± 1.2 µM (≈ 17.7 µg/mL). Further, the “MIC, erythromycin [1 mg/L] no” value is 193.1 ± 1.0 µM (≈ 58.4 µg/mL) in test [4] (MRSA 331 (ermC), without erythromycin) and 178.1 ± 2.7 µM (≈ 53.8 µg/mL) in the test with MRSA 3596 (MRSA 3596 (ermA), without erythromycin, Table 4). The “FIC (Fractional Inhibitory Concentration Index)” value came to 0.99 ± 0.01 in test [4] (MRSA 331, with erythromycin); 0.33 ± 0.01 in the test on MRSA 3596 (with erythromycin); 0.31 ± 0.01 with MRSA 3596 (with gentamicin). For the same compound, the entries for the “effect (mode of action with erythromycin)” value with MRSA 3596 and in the test with MRSA 3596 (listed as quercetin) were “synergy (Fractional Inhibitory Concentration Index (FIC) < 0.5 indicates synergism)” and “synergistic activity”, respectively. For the same compound, in the test with MRSA 3596, the “effect (mode of action with gentamicin)” value is recorded as “synergy (Fractional Inhibitory Concentration Index (FIC) < 0.5 indicates synergism)”. For the same compound, the “MIC, Gentamicin [1 mg/L] yes” value against MRSA 3596 amounted to 54.5 ± 0.6 µM (≈ 16.5 µg/mL). In addition, in the test on MRSA 3596, the MIC was found to be 178 ± 2.7 µM (≈ 53.8 µg/mL).

Consider `O=c1c(O)c(-c2ccc(O)c(O)c2)oc2c(Nc3ccc(F)cc3)c(O)cc(O)c12` [compound 5, 2-(3,4-Dihydroxyphenyl)-8-(4-fluoroanilino)-3,5,7-trihydroxy-4H–1-benzopyran-4-one], for which the IC50 in test [1] stood at 37.4 ± 1.6 µM; in test [2] it was 14.6 ± 0.8 µM; in test [3] (setting [5]), 95.9 ± 6.1 µM; with S. aureus MRSA 9, 60.7 ± 2.4 µM. Moreover, the “MIC, Gentamicin [1 mg/L] yes” value with MRSA 3596 is given as more than 200 µM. In addition, the MIC with MRSA 3596 is more than 200 µM.

`O=c1cc(-c2ccc(O)c(O)c2)oc2c(Nc3ccccc3)c(O)cc(O)c12` [compound 13, 2-(3,4-Dihydroxyphenyl)-8-(anilino)-5,7-dihydroxy-4H–1-benzopyran-4-one] gave an IC50 in test [1] of 29.3 ± 0.1 µM. Also, in test [2], the “ability to inhibit IL-6 production compared to luteolin, in words” value is given as “same ability to inhibit IL-6 production as luteolin” and the IC50 amounted to 7.3 ± 0.6 µM. Also, in test [3] (setting [5]), the IC50 was found to be 58.3 ± 2.7 µM. In the test with MRSA 3596, the “effect (mode of action with gentamicin)” value is “synergy (Fractional Inhibitory Concentration Index (FIC) < 0.5 indicates synergism)”; the “MIC, Gentamicin [1 mg/L] yes” value is listed as 23.2 ± 0.4 µM (≈ 8.75 µg/mL); the MIC worked out at 93 ± 0.6 µM (≈ 35.1 µg/mL). Moreover, the “FIC (Fractional Inhibitory Concentration Index)” value with MRSA 3596 (with gentamicin) is reported as 0.25 ± 0.01. For the same compound, in the test on S. aureus MRSA 9, the IC50 turned out to be 51.3 ± 1.3 µM.

`O=c1cc(-c2ccc(O)c(O)c2)oc2c(Nc3cccc(F)c3)c(O)cc(O)c12` [compound 15, 2-(3,4-Dihydroxyphenyl)-8-(3-fluoroanilino)-5,7-dihydroxy-4H–1-benzopyran-4-one]: the IC50 amounted to 31.8 ± 0.9 µM in test [1], 8 ± 0.6 µM in test [2], 30.9 ± 2.1 µM in test [3] (setting [5]) and 56.9 ± 1.9 µM in the test on S. aureus MRSA 9. In test [2], the “ability to inhibit IL-6 production compared to luteolin, in words” value was “same ability to inhibit IL-6 production as luteolin”. The “effect (mode of action with gentamicin)” value with MRSA 3596 was “synergy (Fractional Inhibitory Concentration Index (FIC) < 0.5 indicates synergism)”. For the same compound, the “MIC, Gentamicin [1 mg/L] yes” value in the test on MRSA 3596 is reported as 5.3 ± 0.1 µM (≈ 2.1 µg/mL). Besides, in the test with MRSA 3596 (with gentamicin), the “FIC (Fractional Inhibitory Concentration Index)” value came to 0.21 ± 0.1. For the same compound, the MIC in the test with MRSA 3596 turned out to be 25.7 ± 0.4 µM (≈ 10.2 µg/mL).
